From ChEMBL document CHEMBL5442219 come the findings set out here.

What all share (conditions): Compound concentration 10 µM
Test [1] addresses D(1A) dopamine receptor (Homo sapiens) (UniProt P21728).
In test [2] the target is Sigma non-opioid intracellular receptor 1 (Homo sapiens) (UniProt Q99720).
In test [3] the target is T1, Alpha-2B adrenergic receptor (Homo sapiens) (UniProt P18089).
T1 sequence (whole entry): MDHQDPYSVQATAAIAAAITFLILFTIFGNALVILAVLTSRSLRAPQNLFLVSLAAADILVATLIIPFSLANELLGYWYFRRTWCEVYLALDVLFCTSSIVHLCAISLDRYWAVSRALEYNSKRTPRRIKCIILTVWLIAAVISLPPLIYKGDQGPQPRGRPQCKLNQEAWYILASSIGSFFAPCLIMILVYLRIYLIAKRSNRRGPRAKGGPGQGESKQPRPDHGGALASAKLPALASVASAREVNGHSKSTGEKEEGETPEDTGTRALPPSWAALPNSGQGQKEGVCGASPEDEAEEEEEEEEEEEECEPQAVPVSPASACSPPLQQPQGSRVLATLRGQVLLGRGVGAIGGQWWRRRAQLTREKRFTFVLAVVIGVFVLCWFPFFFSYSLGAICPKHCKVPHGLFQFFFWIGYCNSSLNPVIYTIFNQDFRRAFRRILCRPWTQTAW

The target in test [4] is Sodium-dependent dopamine transporter (Homo sapiens) (UniProt Q01959).
Test [5] has as its target Histamine H2 receptor (Homo sapiens) (UniProt P25021).
The target in test [6] is Histamine H4 receptor (Homo sapiens) (UniProt Q9H3N8).
The target of test [7] is Delta-type opioid receptor (Homo sapiens) (UniProt P41143).
Test [8] concerns the target Histamine H1 receptor (Homo sapiens) (UniProt P35367).
Test [9] deals with Muscarinic acetylcholine receptor M3 (Homo sapiens) (UniProt P20309).
The target in test [10] is 5-hydroxytryptamine receptor 2B (Homo sapiens) (UniProt P41595).
For test [11], the target named is T2, Muscarinic acetylcholine receptor M1 (Homo sapiens) (UniProt P11229).
T2 sequence (whole entry): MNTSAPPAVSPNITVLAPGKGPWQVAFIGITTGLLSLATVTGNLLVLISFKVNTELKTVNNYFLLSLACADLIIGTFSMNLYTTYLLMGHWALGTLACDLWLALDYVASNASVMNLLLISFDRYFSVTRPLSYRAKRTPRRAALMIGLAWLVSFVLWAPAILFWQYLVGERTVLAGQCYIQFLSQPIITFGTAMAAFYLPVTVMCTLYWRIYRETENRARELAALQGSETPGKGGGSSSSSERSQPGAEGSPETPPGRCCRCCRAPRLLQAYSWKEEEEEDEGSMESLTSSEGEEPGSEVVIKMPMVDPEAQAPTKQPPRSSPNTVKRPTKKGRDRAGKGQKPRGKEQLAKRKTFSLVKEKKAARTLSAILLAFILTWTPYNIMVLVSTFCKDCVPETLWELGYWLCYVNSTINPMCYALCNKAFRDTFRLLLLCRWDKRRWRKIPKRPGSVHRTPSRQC

In test [12] the target is 5-hydroxytryptamine receptor 1D (Homo sapiens) (UniProt P28221).
The target in test [13] is Translocator protein (Homo sapiens) (UniProt P30536).
Test [14] addresses T3, Muscarinic acetylcholine receptor M2 (Homo sapiens) (UniProt P08172).
T3 sequence (whole entry): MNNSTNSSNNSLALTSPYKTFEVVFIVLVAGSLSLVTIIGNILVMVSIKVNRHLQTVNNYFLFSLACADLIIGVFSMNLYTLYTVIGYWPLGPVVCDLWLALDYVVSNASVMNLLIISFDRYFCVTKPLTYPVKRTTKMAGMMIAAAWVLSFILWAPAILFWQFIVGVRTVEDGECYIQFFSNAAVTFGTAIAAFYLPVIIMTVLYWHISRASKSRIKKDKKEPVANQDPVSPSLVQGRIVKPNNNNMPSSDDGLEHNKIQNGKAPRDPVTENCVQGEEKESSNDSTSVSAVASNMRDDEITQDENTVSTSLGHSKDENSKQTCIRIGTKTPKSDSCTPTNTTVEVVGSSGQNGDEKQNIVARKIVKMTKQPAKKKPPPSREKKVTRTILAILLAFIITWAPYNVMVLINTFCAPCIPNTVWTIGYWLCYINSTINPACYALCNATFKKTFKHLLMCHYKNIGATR

The target in test [15] is 5-hydroxytryptamine receptor 5A (Homo sapiens) (UniProt P47898).
Test [16] concerns the target T4, Alpha-2C adrenergic receptor (Homo sapiens) (UniProt P18825).
T4 sequence (whole entry): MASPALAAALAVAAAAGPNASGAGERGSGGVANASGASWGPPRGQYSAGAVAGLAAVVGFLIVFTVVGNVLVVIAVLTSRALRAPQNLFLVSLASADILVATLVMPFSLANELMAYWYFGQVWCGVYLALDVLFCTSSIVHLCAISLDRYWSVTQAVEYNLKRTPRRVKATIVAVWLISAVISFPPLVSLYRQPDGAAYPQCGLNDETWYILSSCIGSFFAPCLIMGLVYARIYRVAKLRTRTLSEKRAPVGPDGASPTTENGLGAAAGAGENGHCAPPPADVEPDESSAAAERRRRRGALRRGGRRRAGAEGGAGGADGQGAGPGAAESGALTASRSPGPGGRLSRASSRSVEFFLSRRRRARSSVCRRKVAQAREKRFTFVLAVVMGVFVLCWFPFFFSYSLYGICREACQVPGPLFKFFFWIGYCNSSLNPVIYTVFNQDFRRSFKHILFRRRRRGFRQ

The target of test [17] is Mu-type opioid receptor (Homo sapiens) (UniProt P35372).
Sequence of Mu-type opioid receptor (Homo sapiens) (P35372 whole entry): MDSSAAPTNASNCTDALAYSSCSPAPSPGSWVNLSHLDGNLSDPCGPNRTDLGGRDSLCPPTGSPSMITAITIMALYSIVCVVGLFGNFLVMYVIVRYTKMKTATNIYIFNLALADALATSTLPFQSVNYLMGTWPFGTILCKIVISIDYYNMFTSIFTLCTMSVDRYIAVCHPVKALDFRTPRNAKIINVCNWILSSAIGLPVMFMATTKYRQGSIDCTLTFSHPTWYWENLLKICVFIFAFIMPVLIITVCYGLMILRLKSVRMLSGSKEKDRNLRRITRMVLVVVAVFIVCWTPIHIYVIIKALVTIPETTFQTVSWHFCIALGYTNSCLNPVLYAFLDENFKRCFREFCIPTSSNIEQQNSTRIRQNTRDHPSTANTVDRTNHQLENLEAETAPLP

Sequence of Sigma non-opioid intracellular receptor 1 (Homo sapiens) (Q99720 whole entry): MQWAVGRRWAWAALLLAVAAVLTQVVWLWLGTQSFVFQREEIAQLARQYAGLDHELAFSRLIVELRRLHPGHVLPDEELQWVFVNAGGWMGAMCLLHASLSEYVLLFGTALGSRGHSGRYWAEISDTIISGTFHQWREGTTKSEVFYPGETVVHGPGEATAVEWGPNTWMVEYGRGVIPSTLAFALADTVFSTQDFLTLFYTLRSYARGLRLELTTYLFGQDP
Sequence of 5-hydroxytryptamine receptor 5A (Homo sapiens) (P47898 whole entry): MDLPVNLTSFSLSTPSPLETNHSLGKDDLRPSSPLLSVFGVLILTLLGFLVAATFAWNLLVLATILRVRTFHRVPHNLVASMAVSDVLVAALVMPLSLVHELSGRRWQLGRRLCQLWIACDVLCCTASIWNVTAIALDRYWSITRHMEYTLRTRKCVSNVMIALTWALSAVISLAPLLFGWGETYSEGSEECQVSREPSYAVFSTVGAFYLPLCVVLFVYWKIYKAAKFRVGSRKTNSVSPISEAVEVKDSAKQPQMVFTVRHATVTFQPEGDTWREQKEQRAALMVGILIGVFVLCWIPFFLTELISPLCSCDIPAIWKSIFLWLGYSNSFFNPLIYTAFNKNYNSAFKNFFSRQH
Sequence of 5-hydroxytryptamine receptor 2B (Homo sapiens) (P41595 whole entry): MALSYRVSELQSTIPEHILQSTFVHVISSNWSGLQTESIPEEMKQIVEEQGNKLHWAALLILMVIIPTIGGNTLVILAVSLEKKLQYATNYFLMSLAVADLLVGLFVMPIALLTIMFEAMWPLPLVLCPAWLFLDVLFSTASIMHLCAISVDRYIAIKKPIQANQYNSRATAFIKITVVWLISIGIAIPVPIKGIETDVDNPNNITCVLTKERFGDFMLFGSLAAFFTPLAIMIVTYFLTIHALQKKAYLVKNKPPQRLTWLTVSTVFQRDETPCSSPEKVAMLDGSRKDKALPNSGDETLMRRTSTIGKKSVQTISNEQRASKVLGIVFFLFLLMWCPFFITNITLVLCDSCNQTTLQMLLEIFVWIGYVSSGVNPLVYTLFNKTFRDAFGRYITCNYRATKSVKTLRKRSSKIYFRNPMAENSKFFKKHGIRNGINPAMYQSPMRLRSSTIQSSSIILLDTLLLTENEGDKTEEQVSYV
Sequence of Muscarinic acetylcholine receptor M3 (Homo sapiens) (P20309 whole entry, looked up): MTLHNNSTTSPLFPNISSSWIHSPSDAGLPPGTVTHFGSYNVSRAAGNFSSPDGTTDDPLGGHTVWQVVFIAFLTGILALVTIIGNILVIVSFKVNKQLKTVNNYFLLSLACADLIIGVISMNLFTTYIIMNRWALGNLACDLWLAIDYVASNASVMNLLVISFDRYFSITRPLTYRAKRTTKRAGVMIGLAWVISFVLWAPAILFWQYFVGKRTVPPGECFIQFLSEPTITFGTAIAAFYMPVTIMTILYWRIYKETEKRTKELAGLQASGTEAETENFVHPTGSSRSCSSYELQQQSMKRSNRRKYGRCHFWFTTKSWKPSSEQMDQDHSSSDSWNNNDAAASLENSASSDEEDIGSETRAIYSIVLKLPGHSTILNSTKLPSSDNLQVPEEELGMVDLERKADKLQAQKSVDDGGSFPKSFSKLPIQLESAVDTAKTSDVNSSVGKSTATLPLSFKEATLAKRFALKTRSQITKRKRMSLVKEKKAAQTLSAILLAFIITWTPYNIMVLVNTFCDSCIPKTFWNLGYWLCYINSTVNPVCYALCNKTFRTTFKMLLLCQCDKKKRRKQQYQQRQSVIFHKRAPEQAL
Sequence of Histamine H2 receptor (Homo sapiens) (P25021 whole entry): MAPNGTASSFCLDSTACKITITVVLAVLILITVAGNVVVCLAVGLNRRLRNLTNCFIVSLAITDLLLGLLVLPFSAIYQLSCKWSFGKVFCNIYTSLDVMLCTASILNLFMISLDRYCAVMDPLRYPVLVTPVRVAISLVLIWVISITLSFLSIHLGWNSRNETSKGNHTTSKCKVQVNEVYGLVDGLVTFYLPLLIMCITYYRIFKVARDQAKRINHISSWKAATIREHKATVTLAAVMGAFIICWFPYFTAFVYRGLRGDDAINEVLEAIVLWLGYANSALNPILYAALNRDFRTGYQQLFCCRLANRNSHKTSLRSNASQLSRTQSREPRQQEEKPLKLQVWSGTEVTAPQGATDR
Sequence of Histamine H4 receptor (Homo sapiens) (Q9H3N8 whole entry): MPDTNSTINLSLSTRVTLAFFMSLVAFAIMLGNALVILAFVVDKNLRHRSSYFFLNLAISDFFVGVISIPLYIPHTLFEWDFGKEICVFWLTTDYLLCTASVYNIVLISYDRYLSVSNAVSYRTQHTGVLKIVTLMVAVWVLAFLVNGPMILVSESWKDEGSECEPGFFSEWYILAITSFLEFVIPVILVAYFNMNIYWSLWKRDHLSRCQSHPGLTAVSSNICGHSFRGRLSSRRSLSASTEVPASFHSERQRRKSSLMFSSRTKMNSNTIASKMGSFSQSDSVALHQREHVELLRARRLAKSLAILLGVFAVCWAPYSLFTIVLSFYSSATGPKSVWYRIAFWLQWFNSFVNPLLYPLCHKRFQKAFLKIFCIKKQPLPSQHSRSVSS
Sequence of Delta-type opioid receptor (Homo sapiens) (P41143 whole entry): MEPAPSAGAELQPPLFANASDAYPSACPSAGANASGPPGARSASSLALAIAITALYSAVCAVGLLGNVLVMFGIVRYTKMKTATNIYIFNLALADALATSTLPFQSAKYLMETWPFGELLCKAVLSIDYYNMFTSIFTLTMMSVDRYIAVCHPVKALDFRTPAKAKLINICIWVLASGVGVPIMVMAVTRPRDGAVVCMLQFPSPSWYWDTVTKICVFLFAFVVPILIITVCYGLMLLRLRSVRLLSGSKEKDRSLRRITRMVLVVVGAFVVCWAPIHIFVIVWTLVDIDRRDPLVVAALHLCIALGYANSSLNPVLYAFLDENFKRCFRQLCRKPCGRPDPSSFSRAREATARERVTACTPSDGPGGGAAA
Sequence of D(1A) dopamine receptor (Homo sapiens) (P21728 whole entry): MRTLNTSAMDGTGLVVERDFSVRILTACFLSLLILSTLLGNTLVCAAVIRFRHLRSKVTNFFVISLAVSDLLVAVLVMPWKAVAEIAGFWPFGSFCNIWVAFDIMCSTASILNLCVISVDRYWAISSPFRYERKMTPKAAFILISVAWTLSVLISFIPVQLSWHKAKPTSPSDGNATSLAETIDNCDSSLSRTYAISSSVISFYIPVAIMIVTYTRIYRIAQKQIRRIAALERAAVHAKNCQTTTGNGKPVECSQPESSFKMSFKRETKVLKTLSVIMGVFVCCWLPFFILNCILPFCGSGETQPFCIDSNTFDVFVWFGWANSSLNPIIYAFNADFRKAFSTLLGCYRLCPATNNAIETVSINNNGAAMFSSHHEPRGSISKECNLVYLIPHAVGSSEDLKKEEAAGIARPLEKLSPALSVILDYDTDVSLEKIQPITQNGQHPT
Sequence of Translocator protein (Homo sapiens) (P30536 whole entry): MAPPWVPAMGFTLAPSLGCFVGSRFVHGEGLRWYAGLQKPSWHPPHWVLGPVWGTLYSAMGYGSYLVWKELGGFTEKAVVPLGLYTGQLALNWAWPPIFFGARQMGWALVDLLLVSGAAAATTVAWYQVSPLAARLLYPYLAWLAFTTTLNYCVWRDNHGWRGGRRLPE
Sequence of 5-hydroxytryptamine receptor 1D (Homo sapiens) (P28221 whole entry): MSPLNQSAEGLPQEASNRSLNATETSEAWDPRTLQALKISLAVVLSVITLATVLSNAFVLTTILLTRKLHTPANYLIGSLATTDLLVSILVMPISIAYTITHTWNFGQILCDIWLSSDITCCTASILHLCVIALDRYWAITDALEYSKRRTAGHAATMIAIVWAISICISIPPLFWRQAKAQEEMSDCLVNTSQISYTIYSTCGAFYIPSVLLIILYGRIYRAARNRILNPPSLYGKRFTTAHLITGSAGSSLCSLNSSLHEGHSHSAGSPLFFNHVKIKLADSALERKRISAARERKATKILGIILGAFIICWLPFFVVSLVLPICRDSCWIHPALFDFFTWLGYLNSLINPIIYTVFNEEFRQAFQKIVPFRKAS
Sequence of Histamine H1 receptor (Homo sapiens) (P35367 whole entry): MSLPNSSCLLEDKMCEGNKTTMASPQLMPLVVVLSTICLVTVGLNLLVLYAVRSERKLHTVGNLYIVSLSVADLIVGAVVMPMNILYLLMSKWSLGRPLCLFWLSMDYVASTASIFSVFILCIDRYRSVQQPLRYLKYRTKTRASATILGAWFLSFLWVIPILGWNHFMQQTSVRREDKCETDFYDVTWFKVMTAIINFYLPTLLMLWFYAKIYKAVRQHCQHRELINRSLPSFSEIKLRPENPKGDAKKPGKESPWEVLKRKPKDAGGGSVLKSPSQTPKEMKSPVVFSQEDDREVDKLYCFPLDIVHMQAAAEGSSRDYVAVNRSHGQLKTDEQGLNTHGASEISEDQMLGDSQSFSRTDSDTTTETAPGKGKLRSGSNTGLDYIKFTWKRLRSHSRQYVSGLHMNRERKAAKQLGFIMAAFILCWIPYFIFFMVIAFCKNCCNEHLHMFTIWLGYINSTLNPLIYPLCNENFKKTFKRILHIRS

`CCc1ccc(OCc2ccccc2C(=O)Nc2ccc3nc(C)cc(N)c3c2)cc1`: the inhibition – broadly, the relative decrease from the control value, in per cent – in test [1] is 47.8%; in [2], 58.1%; in test [3] it was 55.2%; in test [4] it was 68.4%; in [5], 46.7%; in [6], 36.6%. Besides, the inhibition in [7] was -2.98%; in [8] it was 7.44%; in test [9] it was 11.1%; in [10], 74.8%; in test [11], 74.4%; in test [12], 59.3%. The inhibition in test [13] was 54.7%; in [14] it was 11.9%; in [15], 52.3%; in test [16], 40.9%; in test [17] it was 81.7%.

With `COc1ccc(OC(F)(F)F)cc1CN[C@H]1CCCN[C@H]1c1ccccc1`, the inhibition is 4.84% in test [1]; 59.9% in [2]; 0.54% in test [3]; 57.6% in [4]; 42.3% in test [5]; 1.14% in test [6]. Also, the inhibition in test [8] is 92.9%; in [9], -8.99%; in test [10], 87.7%; in test [11], 13.7%; in test [12], -4.51%; in test [13] it was 17.5%. Moreover, the inhibition was 12.9% in test [14], 24.8% in test [15], 9.77% in [16] and 41.3% in [17].

For `Clc1cccc(COc2cncc(N3CCNCC3)n2)c1`, the inhibition in [1] is 29.3%; in test [2], 96%; in test [3], 36.1%; in test [4] it was 33.5%; in test [5], 14.4%; in [6], 49.1%. For the same molecule, the inhibition in test [7] is -4.82%; in test [8], 55.6%; in test [9], 82.1%; in test [10] it was 99.5%; in [11], 82%; in test [12], 89.1%. The inhibition in [13] is 36.1%; in test [14], 33.3%; in [15], 13.2%; in test [16] it was 36.9%; in test [17], 0.78%.

With `CCCCCNC(=N)N/N=C/c1c[nH]c2ccc(OC)cc12`, the inhibition in [1] was 47.1%; in test [2], 96.6%; in test [3], 69%; in test [4], 69.1%; in test [5] it was 23.9%; in test [6] it was 27.9%. Further, the inhibition in test [7] is 12.6%; in test [8], 31.1%; in test [9], 7.96%; in test [10] it was 100%; in test [11], 19.6%; in test [12], 76.3%. Also, the inhibition is 47.4% in test [13]; 38.2% in [14]; 97.6% in [15]; 94.1% in [16]; 63.9% in test [17].

Take `COc1cc(-n2cnc3cc(-c4ccc(Cl)cc4)sc3c2=O)ccc1OCCN1CCCC1`: the inhibition in test [1] is 11.7%; in [2], 98.9%; in [3], 47.6%; in test [4], 66.4%; in test [5], 18.7%; in test [6], 58.1%. For the same molecule, the inhibition in test [7] was 28.9%; in test [8], 42.2%; in test [9] it was 56.6%; in test [10] it was 82.7%; in test [11], 84.1%; in [12], 56.6%. The inhibition is 11.9% in [13]; 71.5% in test [14]; 85.3% in test [15]; 71.9% in test [16]; 37.9% in [17].

As to `C[C@H](Cc1cc2c(c(C(N)=O)c1)N(CCCO)CC2)NCCOc1ccccc1OCC(F)(F)F`, the inhibition was -5.84% in [1]; 38.9% in test [2]; 69.7% in test [3]; 35.5% in test [4]; 34.6% in test [5]; -6.83% in [6]. The inhibition is 62.9% in [8]; -2.64% in test [9]; 71.7% in test [10]; 20.8% in [11]; 90.2% in [12]; 2.96% in test [13]. In addition, the inhibition in test [14] is -1.87%; in test [15] it was 25.3%; in test [16] it was 82.5%; in [17], 38.8%.

Take `COc1cccc([C@@H](C)NCCCc2ccccc2Cl)c1`: the inhibition in test [1] was 12.6%; in test [2], 97.4%; in [3] it was 72.4%; in [4], 31.1%; in test [5], 72.6%; in test [6] it was 0%. Moreover, the inhibition in [7] is 11.8%; in [8] it was 70.6%; in test [9] it was 0.89%; in test [10] it was 96.6%; in test [11], -0.51%; in [12], 33.7%. Also, the inhibition in test [13] was 9.42%; in test [14] it was 7%; in test [15] it was 61.2%; in [16], 79.9%; in test [17], 57.2%.

Consider `CCOC(=O)c1c(C)[nH]c2ccc3c(c12)CN1CCc2cc(OC)ccc2C1O3` (centres undefined), for which the inhibition in test [1] is 1.81%; in test [2], 29.3%; in test [3], 60%; in [4] it was 82.9%; in test [5] it was 57.5%; in test [6] it was 29.1%. Moreover, the inhibition in test [7] is -2.17%; in [8] it was 24.9%; in test [9] it was 69.2%; in [10], 67.6%; in test [11], 11.9%; in test [12], 14.9%. The inhibition in test [13] is 28.3%; in [14], 22.6%; in [15], 31%; in test [16] it was 95%; in test [17] it was 56.5%.
